≈ marks a conversion by molar mass, not a printed value. Where two headings read alike, the source gives them in different places.
Key:
S. aureus 6538pA = assay: Minimum inhibitory concentration, agar dilution; format: cell-based; settings: Staphylococcus aureus, Muller-Hinton agar, 10^7 CFU per ml, 37° C., 20 hours
Protocol: (§1) The minimum inhibitory concentration was determined by diluting the test compounds according to 2-fold dilution, suspending them in M uller-Hinton agar medium, inoculating the test strains having 10^7 CFU per 1 ml into the medium and then culturing the medium at 37° C. for 20 hours.

E. coli TEM1 1193E = assay: Minimum inhibitory concentration, agar dilution; format: cell-based; settings: Escherichia coli, TEM11193E, 20 h, read-out: Minimum Inhibitory Concentration
Protocol: as §1

S. faecalis 29212A = assay: Minimum inhibitory concentration, agar dilution; format: cell-based; settings: Enterococcus faecalis, read-out: Minimum Inhibitory Concentration
Protocol: as §1

E. coli 3190Y = assay: Minimum inhibitory concentration, agar dilution; format: cell-based; settings: Escherichia coli, read-out: Minimum Inhibitory Concentration
Protocol: as §1

E. coli TEM9 2639E = assay: Minimum inhibitory concentration, agar dilution; format: cell-based; settings: Escherichia coli, TEM92639E, 20 h, read-out: Minimum Inhibitory Concentration
Protocol: as §1

E. coli TEM5 3739E = assay: Minimum inhibitory concentration, agar dilution; format: cell-based; settings: Escherichia coli, TEM53739E, 20 h, read-out: Minimum Inhibitory Concentration
Protocol: as §1

P. aeruginosa 10145 = assay: Minimum inhibitory concentration, agar dilution; format: cell-based; settings: Pseudomonas aeruginosa, Muller-Hinton agar, 10^7 CFU per ml, 37° C., 20 hours
Protocol: as §1

E. coli 10536 = assay: Minimum inhibitory concentration, agar dilution; format: cell-based; settings: read-out: Minimum Inhibitory Concentration
Protocol: as §1

K. aerogenes 1976E = assay: Minimum inhibitory concentration, agar dilution; format: cell-based; settings: Klebsiella aerogenes, Muller-Hinton agar, 10^7 CFU per ml, 37° C., 20 hours
Protocol: as §1

E. cloacae 1194E = assay: Minimum inhibitory concentration, agar dilution; format: cell-based; settings: Enterobacter cloacae, read-out: Minimum Inhibitory Concentration
Protocol: as §1

S. marcescens 1826E = assay: Minimum inhibitory concentration, agar dilution; format: cell-based; settings: Serratia marcescens, Muller-Hinton agar, 10^7 CFU per ml, 37° C., 20 hours
Protocol: as §1

A. calcoaceticus 15473A = assay: Minimum inhibitory concentration, agar dilution; format: cell-based; settings: Acinetobacter calcoaceticus, Muller-Hinton agar, 10^7 CFU per ml, 37° C., 20 hours
Protocol: as §1

S. typhimurium 14028A = assay: Minimum inhibitory concentration, agar dilution; format: cell-based; settings: Salmonella enterica, read-out: Minimum Inhibitory Concentration
Protocol: as §1

S. aureus giorigio = assay: Minimum inhibitory concentration, agar dilution; format: cell-based; settings: Staphylococcus aureus, Muller-Hinton agar, 10^7 CFU per ml, 37° C., 20 hours
Protocol: as §1

[1] = Pharmacokinetic properties in SD rats; format: in vivo; settings: rat; SD rats (male), intravenous, 20 mg/kg; blood, biological assay (agar well method)
Protocol: The pharmacokinetic properties of the compound of the present invention were determined using SD rats (.male.) weighing 220 to 340 g. Specifically, the test samples were administered in intravenous route in an amount of 20 mg/kg to 2 to 5 test animals. Blood was taken from femoral vein every hours after the administration and then subjected to a biological assay using agar well method to measure the blood concentration. The results of pharmacokinetic properties calculated from the above blood concentration are described in the following Table 3.

P. aeruginosa 1912E = assay: Minimum inhibitory concentration, agar dilution; format: cell-based; settings: Pseudomonas aeruginosa, 20 h, read-out: Minimum Inhibitory Concentration
Protocol: as §1

P. aeruginosa 6065Y = assay: Minimum inhibitory concentration, agar dilution; format: cell-based; settings: Pseudomonas aeruginosa, 20 h, read-out: Minimum Inhibitory Concentration
Protocol: as §1

[2] = Escherichia coli, E. coli 10536, Muller-Hinton agar, 10^7 CFU per ml, 37° C., 20 hours
[3] = E. cloacae 1194E, Muller-Hinton agar, 10^7 CFU per ml, 37° C., 20 hours
[4] = E. coli 3190Y, Muller-Hinton agar, 10^7 CFU per ml, 37° C., 20 hours

C[n+]1cc(CS(=O)(=O)O)c(N)nc1SCC1=C(C(=O)[O-])N2C(=O)C(NC(=O)/C(=N\OC(C(=O)O)c3ccc(O)c(O)c3)c3csc(N)n3)[C@H]2SC1 (stereo partly drawn) [I-7(a), 7-[(Z)-2-(2-aminothiazol-4-yl)-2-(α-carboxy-3,4-dihydroxybenzyloxyimino)acetamido]-3-(1-methyl-4-amino-5-sulfomethylpyrimidinium-2-yl)thiomethyl-3-cephem-4-carboxylate]
MIC (S. aureus 6538pA): 2 µg/mL (≈ 2.55 µM)
MIC (E. coli TEM1 1193E): 0.13 µg/mL (≈ 0.166 µM)
MIC (S. faecalis 29212A; 29212A, 20 h): 32 µg/mL (≈ 40.9 µM)
MIC (E. coli 3190Y; 3190Y, 20 h): 0.063 µg/mL (≈ 0.0805 µM)
MIC (E. coli TEM9 2639E): 4 µg/mL (≈ 5.11 µM)
MIC (E. coli TEM5 3739E): 0.5 µg/mL (≈ 0.639 µM)
MIC (P. aeruginosa 10145): 0.25 µg/mL (≈ 0.319 µM)
MIC (E. coli 10536; [2]): 0.031 µg/mL (≈ 0.0396 µM)
MIC (K. aerogenes 1976E): 0.5 µg/mL (≈ 0.639 µM)
MIC (E. cloacae 1194E; [3]): 8 µg/mL (≈ 10.2 µM)
MIC (S. marcescens 1826E): 1 µg/mL (≈ 1.28 µM)
MIC (A. calcoaceticus 15473A): 0.5 µg/mL (≈ 0.639 µM)
MIC (S. typhimurium 14028A; TYPHIMURIUM, 20 h): 0.5 µg/mL (≈ 0.639 µM)
MIC (S. aureus giorigio): 2 µg/mL (≈ 2.55 µM)
AUC [1]: 53100 ng·h/mL
half-life [1]: 48 min

Nc1nc(C(=NOC(C(=O)O)c2ccc(O)c(O)c2)C(=O)NC2C(=O)N3C(C(=O)[O-])=C(CSc4nc(N)c5c([n+]4N)CCC5)CSC23)cs1 (stereo not drawn) [I-8(a), 7-[(Z)-2-(2-aminothiazol-4-yl)-2-(α-carboxy-3,4-dihydroxybenzyloxyimino)acetamido]-3-(1,4-diamino-1,5,6,7-tetrahydrocyclopentapyrimidin-2-yl) thiomethyl-3-cephem-4-carboxylate]
MIC (P. aeruginosa 1912E): 0.5 µg/mL (≈ 0.685 µM)
MIC (S. aureus 6538pA): 0.5 µg/mL (≈ 0.685 µM)
MIC (P. aeruginosa 6065Y): 1 µg/mL (≈ 1.37 µM)
MIC (E. coli TEM1 1193E): 0.063 µg/mL (≈ 0.0863 µM)
MIC (S. faecalis 29212A; 29212A, 20 h): 16 µg/mL (≈ 21.9 µM)
MIC (E. coli 3190Y; [4]): 0.031 µg/mL (≈ 0.0425 µM)
MIC (E. coli TEM9 2639E): 1 µg/mL (≈ 1.37 µM)
MIC (E. coli TEM5 3739E): 0.5 µg/mL (≈ 0.685 µM)
MIC (P. aeruginosa 10145): 0.5 µg/mL (≈ 0.685 µM)
MIC (E. coli 10536; [2]): 0.031 µg/mL (≈ 0.0425 µM)
MIC (K. aerogenes 1976E): 0.13 µg/mL (≈ 0.178 µM)
MIC (E. cloacae 1194E; 1194E, 20 h): 2 µg/mL (≈ 2.74 µM)
MIC (S. marcescens 1826E): 0.5 µg/mL (≈ 0.685 µM)
MIC (A. calcoaceticus 15473A): 0.25 µg/mL (≈ 0.343 µM)
MIC (S. typhimurium 14028A; TYPHIMURIUM, 20 h): 0.063 µg/mL (≈ 0.0863 µM)
MIC (S. aureus giorigio): 0.063 µg/mL (≈ 0.0863 µM)
AUC [1]: 64500 ng·h/mL
half-life [1]: 53 min

C[n+]1c(N)cc(N)nc1SCC1=C(C(=O)[O-])N2C(=O)C(NC(=O)C(=NOC(C(=O)O)c3ccc(O)c(O)c3)c3csc(N)n3)C2SC1 (stereo not drawn) [I-3(a), 7-[(Z)-2-(2-aminothiazol-4-yl)-2-(α-carboxy-3,4-dihydroxybenzyloximio)acetamido]-3-(4,6-diamino-1-methylpyrimidinium-2-yl)thiomethyl-3-cephem-4-carboxylate]
MIC (P. aeruginosa 1912E): 0.5 µg/mL (≈ 0.71 µM)
MIC (S. aureus 6538pA): 0.5 µg/mL (≈ 0.71 µM)
MIC (P. aeruginosa 6065Y): 1 µg/mL (≈ 1.42 µM)
MIC (E. coli TEM1 1193E): 0.063 µg/mL (≈ 0.0895 µM)
MIC (S. faecalis 29212A; 29212A, 20 h): 32 µg/mL (≈ 45.5 µM)
MIC (E. coli 3190Y; [4]): 0.031 µg/mL (≈ 0.0441 µM)
MIC (E. coli TEM9 2639E): 4 µg/mL (≈ 5.68 µM)
MIC (E. coli TEM5 3739E): 0.5 µg/mL (≈ 0.71 µM)
MIC (P. aeruginosa 10145): 0.5 µg/mL (≈ 0.71 µM)
MIC (E. coli 10536; Escherichia coli, 10536, 20 h): 0.063 µg/mL (≈ 0.0895 µM)
MIC (K. aerogenes 1976E): 0.25 µg/mL (≈ 0.355 µM)
MIC (E. cloacae 1194E; [3]): 8 µg/mL (≈ 11.4 µM)
MIC (S. marcescens 1826E): 0.5 µg/mL (≈ 0.71 µM)
MIC (A. calcoaceticus 15473A): 0.5 µg/mL (≈ 0.71 µM)
MIC (S. typhimurium 14028A; TYPHIMURIUM, 20 h): 0.063 µg/mL (≈ 0.0895 µM)
MIC (S. aureus giorigio): 0.5 µg/mL (≈ 0.71 µM)
AUC [1]: 55400 ng·h/mL
half-life [1]: 53 min

C[n+]1ccc(N)nc1SCC1=C(C(=O)[O-])N2C(=O)C(NC(=O)/C(=N\OC(C(=O)O)c3ccc(O)c(O)c3)c3csc(N)n3)[C@H]2SC1 (stereo partly drawn) [I-5(a), 7-[(Z)-2-(2-aminothiazol-4-yl)-2-(α-carboxy-3,4-dihydroxybenzyloxyimino)acetamido]-3-(4-amino-1-methylpyrimidinium-2-yl)thiomethyl-3-cephem-4-carboxylate]
MIC (P. aeruginosa 1912E): 0.5 µg/mL (≈ 0.726 µM)
MIC (S. aureus 6538pA): 0.5 µg/mL (≈ 0.726 µM)
MIC (P. aeruginosa 6065Y): 1 µg/mL (≈ 1.45 µM)
MIC (E. coli TEM1 1193E): 0.063 µg/mL (≈ 0.0915 µM)
MIC (S. faecalis 29212A; S. faecalis 29212A, Muller-Hinton agar, 10^7 CFU per ml, 37° C., 20 hours): 64 µg/mL (≈ 92.9 µM)
MIC (E. coli 3190Y; 3190Y, 20 h): 0.063 µg/mL (≈ 0.0915 µM)
MIC (E. coli TEM9 2639E): 2 µg/mL (≈ 2.9 µM)
MIC (E. coli TEM5 3739E): 0.5 µg/mL (≈ 0.726 µM)
MIC (P. aeruginosa 10145): 0.5 µg/mL (≈ 0.726 µM)
MIC (E. coli 10536; [2]): 0.031 µg/mL (≈ 0.045 µM)
MIC (K. aerogenes 1976E): 0.25 µg/mL (≈ 0.363 µM)
MIC (E. cloacae 1194E; 1194E, 20 h): 4 µg/mL (≈ 5.81 µM)
MIC (S. marcescens 1826E): 0.5 µg/mL (≈ 0.726 µM)
MIC (A. calcoaceticus 15473A): 0.5 µg/mL (≈ 0.726 µM)
MIC (S. typhimurium 14028A; S. typhimurium 14028A, Muller-Hinton agar, 10^7 CFU per ml, 37° C., 20 hours): 0.031 µg/mL (≈ 0.045 µM)
MIC (S. aureus giorigio): 0.25 µg/mL (≈ 0.363 µM)
AUC [1]: 43600 ng·h/mL
half-life [1]: 39 min

From patent US5605895A, “Cephalosporin antibiotics and processes for preparation thereof” (Lucky, Ltd., priority 1993, dated 1997)
